The target in one test is T1, Melanocortin MC4 (Homo sapiens, UniProt P32245).
T1 construct: host or cells: CHO cells
In words: radioligand binding (Table S2). Particulars: [125I] NDP-α-MSH, Human recombinant CHO cells.

The target of a further test is T2, Vasopressin V1a (Homo sapiens, UniProt P37288).
T2 construct: host or cells: CHO cells
The test is described as follows: functional assay, intracellular [Ca2+], CHO cells (Table S2). In kind it is cell-based. As to conditions: AVP (10 nM).

A further test concerns the target Angiotensine AT2 (Homo sapiens, UniProt P50052). The test is described as follows: radioligand binding (Table S2). As to conditions: read-out: % Inhibition @ 10 µM.
The next test concerns the target PDE4D2 (Homo sapiens, UniProt Q08499). In words: enzyme assay (Table S2). In kind it is biochemical. As to conditions: [3H]cAMP + cAMP (0.5 µM), Scintillation counting.
A further test has as its target Neurotensin NT1 (Homo sapiens, UniProt P30989). The test is described as follows: radioligand binding (Table S2). As to conditions: [125I] Neurotensin, Human recombinant HEK-293 cells.
The target of test [1] is T3, Vasoactive intestinal peptide VPAC1 (VIP1) (Homo sapiens, UniProt P32241).
T3 construct: host or cells: CHO cells
T3 sequence (P32241 31-457): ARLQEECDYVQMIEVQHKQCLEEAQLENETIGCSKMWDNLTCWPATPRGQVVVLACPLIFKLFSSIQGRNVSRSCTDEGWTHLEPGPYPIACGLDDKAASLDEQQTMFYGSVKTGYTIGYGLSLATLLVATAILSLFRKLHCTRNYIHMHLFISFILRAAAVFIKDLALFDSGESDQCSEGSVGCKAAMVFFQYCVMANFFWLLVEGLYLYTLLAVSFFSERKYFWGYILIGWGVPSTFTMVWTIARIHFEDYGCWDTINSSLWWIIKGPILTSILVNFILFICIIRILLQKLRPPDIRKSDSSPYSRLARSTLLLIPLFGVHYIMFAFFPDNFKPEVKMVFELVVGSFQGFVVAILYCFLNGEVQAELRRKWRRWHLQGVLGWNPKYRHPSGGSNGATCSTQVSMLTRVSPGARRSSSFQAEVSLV
In words: radioligand binding (Table S2). As to conditions: [125I] VIP, Human recombinant CHO cells.

The target in the next test is T4, B2 receptor (Homo sapiens, UniProt P30411).
T4 sequence (P30411 1-391): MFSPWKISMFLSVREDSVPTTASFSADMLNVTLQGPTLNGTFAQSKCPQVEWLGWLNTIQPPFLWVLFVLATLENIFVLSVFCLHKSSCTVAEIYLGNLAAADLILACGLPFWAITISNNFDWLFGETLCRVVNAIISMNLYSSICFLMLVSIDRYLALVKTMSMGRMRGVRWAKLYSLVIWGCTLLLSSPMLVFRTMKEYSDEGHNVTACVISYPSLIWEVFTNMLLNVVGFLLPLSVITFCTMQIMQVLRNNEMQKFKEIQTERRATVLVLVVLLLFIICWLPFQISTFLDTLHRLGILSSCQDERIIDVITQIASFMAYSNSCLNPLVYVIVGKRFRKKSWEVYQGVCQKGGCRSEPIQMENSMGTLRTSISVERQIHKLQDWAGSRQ
The test is described as follows: Ca^2+ mobilization assay, transfected CHO cells. In kind it is cell-based. The arrangement: host or cells: CHO cells. As to conditions: inhibition of response to 0.03 nM BK.

For test [2], the target named is T5, Corticotropin-releasing hormone receptor CRF1 (Homo sapiens, UniProt P34998).
T5 construct: host or cells: CHO cells
T5 sequence (P34998 24-415): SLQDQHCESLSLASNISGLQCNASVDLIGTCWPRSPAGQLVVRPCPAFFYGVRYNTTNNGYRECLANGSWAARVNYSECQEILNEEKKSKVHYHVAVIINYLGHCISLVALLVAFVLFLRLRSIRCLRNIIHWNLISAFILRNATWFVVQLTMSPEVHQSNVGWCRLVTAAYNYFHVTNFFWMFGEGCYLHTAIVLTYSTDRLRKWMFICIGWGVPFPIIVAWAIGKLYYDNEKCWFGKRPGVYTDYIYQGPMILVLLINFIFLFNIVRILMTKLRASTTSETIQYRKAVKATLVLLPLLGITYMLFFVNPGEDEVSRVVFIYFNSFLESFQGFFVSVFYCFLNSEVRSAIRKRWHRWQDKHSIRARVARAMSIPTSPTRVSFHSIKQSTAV
In words: radioligand binding (Table S2). Particulars: [125I] Sauvagine, Human recombinant CHO cells.

Another test addresses T6, Chemokine CCR2B (Homo sapiens, UniProt P41597).
T6 construct: host or cells: CHO-K1 cells
In words: radioligand binding (Table S2). As to conditions: [125I] MCP-1, Human recombinant CHO-K1 cells.

A further test has as its target T7, Orexin OX1 (Homo sapiens, UniProt O43613).
T7 construct: host or cells: CHO cells
The test is described as follows: radioligand binding (Table S2). As to conditions: [125I] Orexin A, Human recombinant CHO cells.

The target in a further test is T8, rat B2 receptor (Rattus norvegicus, UniProt P25023).
T8 construct: host or cells: HEK293T cells
T8 sequence (P25023 1-396): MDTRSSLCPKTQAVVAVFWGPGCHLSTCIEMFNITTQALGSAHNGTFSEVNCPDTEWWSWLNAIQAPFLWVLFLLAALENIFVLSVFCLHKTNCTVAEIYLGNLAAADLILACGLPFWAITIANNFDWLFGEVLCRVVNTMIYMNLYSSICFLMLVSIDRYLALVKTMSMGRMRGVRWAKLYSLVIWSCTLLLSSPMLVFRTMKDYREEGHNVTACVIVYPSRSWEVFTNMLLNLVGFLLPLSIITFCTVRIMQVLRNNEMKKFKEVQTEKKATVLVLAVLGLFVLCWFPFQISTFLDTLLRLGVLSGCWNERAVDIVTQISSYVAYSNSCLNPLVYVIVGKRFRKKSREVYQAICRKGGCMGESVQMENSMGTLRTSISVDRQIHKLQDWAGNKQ
The test is described as follows: Ca^2+ mobilization assay, HEK293T cells. As to conditions: BK at EC80 4.32 nM. In kind it is cell-based.

Another test addresses T9, Serotonin 5-HT4 e (Homo sapiens, UniProt Q13639).
T9 construct: host or cells: CHO cells
In words: radioligand binding (Table S2). As to conditions: [3H] GR 113808, Human recombinant CHO cells.

The target of a further test is T10, human myc-B2 receptor (Homo sapiens, UniProt P30411).
T10 construct: expressed in transfected cells
T10 sequence (P30411 1-391): T4 sequence (P30411 1-391)
In words: c-Fos immunoblot, HEK 293a cells stably expressing myc-B2 receptor. The format is cell-based. Particulars: BK 10 nM. The text has this:
Supplementary Methods: Immunoblots for c-Fos signaling
The construction of myc-tagged B2 receptor expression vector containing the human receptor sequence has been recently reported, as well as the derivation of HEK293a cell lines that stably express the construction (Charest-Morin et al., 2015). Immunoblotting experiments, conducted as described (Koumbadinga et al., 2010), were used to study the effect of selected antagonists on BK-induced signaling. Briefly, HEK 293a cells stably expressing the human myc-B2 receptor were stimulated with BK agonists for 60 min at 37°C, with or without a pretreatment with the antagonist (applied 15 min before BK). Total cell extracts were immunoblotted to detect c-Fos expression using the K-25 rabbit polyclonal antibodies (Santa Cruz Biotechnology, Dallas, TX; dilution 1:50,000). In these experiments, β-actin was used as a loading control and was detected using the monoclonal anti-β-actin antibody, clone AC-15 (Sigma-Aldrich; dilution 1:50,000).
On the technique in general: In western blotting, separated proteins are transferred to a membrane and probed.

Test [3] addresses Calcitonin gene related peptide CGRP (Homo sapiens, UniProt O60894+Q16602). The test is described as follows: radioligand binding (Table S2). As to conditions: [125I] hCGRPα, Human recombinant CHO cells.
The next test deals with T11, Neurokinin NK2 (Homo sapiens, UniProt P21452).
T11 construct: host or cells: CHO cells
T11 sequence (P21452 1-398): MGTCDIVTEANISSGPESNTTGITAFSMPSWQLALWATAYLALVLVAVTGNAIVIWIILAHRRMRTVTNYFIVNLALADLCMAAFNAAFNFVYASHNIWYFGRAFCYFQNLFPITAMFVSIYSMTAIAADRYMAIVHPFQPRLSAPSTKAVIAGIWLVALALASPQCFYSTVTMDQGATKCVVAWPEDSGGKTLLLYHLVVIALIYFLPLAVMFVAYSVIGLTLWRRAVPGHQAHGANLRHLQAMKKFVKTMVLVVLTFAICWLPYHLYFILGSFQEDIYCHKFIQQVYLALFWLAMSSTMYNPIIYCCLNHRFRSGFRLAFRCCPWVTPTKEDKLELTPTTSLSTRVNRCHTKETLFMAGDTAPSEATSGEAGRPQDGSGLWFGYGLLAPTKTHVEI
The test is described as follows: radioligand binding (Table S2). As to conditions: [125I] NKA, Human recombinant CHO cells.

Each structure is given as a SMILES string. Like-named read-outs stand apart in the source and are kept apart here.

T2 sequence (P37288 whole entry): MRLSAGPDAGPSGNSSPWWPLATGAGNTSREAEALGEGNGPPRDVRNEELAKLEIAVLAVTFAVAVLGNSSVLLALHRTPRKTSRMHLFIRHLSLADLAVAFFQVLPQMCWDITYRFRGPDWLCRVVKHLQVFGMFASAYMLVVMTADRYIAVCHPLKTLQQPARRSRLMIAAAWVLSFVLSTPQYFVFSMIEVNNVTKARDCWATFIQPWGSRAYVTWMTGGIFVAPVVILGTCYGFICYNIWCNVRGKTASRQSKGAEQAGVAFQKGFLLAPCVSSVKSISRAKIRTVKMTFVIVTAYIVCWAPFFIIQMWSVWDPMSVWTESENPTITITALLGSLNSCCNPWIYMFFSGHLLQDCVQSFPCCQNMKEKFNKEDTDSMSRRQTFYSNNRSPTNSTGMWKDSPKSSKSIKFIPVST
Sequence of Angiotensine AT2 (P50052 whole entry): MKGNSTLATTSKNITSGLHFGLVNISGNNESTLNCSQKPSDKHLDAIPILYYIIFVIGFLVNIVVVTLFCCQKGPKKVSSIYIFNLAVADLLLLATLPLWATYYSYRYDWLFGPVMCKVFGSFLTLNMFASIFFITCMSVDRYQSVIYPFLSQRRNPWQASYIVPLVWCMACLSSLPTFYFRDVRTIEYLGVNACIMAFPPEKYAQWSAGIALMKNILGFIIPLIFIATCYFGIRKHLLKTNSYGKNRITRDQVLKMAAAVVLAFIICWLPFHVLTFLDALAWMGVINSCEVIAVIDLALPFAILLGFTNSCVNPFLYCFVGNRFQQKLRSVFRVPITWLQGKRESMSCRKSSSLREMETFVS
T6 sequence (P41597 1-360 isoform P41597-2): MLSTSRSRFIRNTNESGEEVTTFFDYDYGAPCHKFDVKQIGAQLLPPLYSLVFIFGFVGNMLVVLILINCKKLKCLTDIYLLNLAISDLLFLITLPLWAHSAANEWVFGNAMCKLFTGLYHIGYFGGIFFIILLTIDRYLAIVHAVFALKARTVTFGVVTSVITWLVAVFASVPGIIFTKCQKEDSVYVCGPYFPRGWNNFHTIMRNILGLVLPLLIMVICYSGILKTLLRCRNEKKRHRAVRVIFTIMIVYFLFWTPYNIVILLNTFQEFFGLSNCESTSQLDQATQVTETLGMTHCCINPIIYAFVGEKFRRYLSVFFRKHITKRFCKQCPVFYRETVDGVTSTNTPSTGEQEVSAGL
T1 sequence (P32245 whole entry): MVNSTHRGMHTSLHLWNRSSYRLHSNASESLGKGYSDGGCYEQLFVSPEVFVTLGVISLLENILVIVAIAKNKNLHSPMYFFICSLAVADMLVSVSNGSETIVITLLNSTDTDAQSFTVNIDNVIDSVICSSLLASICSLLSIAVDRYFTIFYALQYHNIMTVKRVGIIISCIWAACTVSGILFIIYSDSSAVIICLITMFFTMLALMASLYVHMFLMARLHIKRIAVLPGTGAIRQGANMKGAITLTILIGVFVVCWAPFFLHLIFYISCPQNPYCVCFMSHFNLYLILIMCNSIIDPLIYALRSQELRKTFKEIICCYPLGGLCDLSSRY
Sequence of Calcitonin gene related peptide CGRP (Q16602 23-461): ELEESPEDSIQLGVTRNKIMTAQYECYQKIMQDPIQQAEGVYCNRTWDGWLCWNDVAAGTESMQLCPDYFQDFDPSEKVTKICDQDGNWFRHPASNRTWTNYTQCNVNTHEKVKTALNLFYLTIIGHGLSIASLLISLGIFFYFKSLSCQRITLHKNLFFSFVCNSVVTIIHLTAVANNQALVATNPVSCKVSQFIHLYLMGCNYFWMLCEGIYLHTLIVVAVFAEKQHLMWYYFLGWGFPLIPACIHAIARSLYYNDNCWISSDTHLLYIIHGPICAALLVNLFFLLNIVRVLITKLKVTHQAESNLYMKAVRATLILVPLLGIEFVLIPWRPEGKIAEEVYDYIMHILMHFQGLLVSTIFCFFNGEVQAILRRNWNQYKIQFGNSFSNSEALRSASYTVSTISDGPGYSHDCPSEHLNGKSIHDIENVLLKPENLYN
Sequence of Calcitonin gene related peptide CGRP (O60894 27-148 partner): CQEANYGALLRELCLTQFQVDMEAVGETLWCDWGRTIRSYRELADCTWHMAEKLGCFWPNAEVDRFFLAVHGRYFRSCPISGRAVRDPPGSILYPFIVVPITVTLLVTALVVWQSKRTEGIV
T7 sequence (O43613 whole entry): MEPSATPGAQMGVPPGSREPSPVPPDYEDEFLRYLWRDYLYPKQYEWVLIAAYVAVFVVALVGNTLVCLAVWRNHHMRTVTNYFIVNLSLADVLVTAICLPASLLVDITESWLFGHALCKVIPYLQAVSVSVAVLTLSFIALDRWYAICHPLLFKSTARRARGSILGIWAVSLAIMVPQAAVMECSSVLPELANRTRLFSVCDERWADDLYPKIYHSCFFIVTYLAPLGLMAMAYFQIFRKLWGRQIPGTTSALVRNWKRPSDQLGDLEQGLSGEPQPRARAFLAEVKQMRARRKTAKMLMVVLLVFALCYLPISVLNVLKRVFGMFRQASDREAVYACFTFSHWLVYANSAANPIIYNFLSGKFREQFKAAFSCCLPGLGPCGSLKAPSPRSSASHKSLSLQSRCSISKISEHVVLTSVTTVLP
Sequence of Neurotensin NT1 (P30989 whole entry): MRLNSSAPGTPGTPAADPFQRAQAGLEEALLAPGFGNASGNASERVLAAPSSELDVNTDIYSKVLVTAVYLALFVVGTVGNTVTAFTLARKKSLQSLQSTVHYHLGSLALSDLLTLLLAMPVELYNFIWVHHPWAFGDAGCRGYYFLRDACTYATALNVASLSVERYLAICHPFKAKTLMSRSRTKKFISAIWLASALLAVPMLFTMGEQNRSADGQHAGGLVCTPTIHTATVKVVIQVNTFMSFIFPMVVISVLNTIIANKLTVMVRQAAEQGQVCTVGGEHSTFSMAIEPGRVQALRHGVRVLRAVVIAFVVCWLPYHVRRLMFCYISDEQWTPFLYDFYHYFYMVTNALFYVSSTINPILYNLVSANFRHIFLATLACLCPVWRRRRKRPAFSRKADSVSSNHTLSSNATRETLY
Sequence of PDE4D2 (Q08499 303-809 limits assumed): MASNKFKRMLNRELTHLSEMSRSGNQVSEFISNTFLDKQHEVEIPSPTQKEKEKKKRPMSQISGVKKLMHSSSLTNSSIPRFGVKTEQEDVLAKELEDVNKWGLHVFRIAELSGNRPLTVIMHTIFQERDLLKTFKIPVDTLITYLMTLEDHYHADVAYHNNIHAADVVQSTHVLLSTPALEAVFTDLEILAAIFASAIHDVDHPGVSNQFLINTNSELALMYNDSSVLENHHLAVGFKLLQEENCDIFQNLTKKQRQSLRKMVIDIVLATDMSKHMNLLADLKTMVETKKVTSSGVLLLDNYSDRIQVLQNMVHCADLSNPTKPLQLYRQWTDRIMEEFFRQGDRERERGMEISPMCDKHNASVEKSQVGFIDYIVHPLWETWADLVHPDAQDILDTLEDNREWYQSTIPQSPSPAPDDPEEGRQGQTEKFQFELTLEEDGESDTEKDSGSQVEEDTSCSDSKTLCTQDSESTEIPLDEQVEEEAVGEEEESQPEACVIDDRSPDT
T9 sequence (Q13639 1-378 isoform Q13639-5): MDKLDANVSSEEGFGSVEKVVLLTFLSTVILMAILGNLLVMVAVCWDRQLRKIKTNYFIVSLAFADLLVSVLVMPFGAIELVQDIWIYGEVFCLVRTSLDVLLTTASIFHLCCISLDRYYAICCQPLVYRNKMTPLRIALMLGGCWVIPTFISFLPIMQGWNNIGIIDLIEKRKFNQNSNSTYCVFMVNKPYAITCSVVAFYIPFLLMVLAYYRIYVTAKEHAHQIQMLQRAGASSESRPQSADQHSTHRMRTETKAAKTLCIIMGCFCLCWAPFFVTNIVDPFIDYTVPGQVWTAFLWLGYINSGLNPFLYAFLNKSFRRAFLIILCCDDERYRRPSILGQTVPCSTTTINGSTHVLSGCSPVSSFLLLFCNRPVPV

For `Cc1cc(-c2ncnn2C)c2cccc(OCc3c(Cl)cc(F)cc3[C@H](C)NC(=O)COC(F)F)c2n1` [Compound 3, (S)-N-(1-(3-chloro-5-fluoro-2-((2-methyl-4-(1-methyl-1H-1,2,4-triazol-5-yl)quinolin-8-yloxy)methyl)phenyl)ethyl)-2-(difluoromethoxy)acetamide], the inhibition at 10 µM is 7.1% at Melanocortin MC4; 51.9% at Vasopressin V1a (CHO, read-out: % inhibition of reference agonist response @ 10 µM (antagonist effect), 10 µM); 3.5% at Angiotensine AT2; 4.4% at PDE4D2; 4% at Neurotensin NT1; 0.8% in test [1]. Moreover, the inhibition at 10 µM in [2] was 73.5%; at Chemokine CCR2B, 1%; at Orexin OX1 it was 7.1%; on Serotonin 5-HT4 e it was -0.9%; in test [3] it was -26.1%; on Neurokinin NK2 it was 21.2%. Moreover, the IC50 at Vasopressin V1a (read-out: IC50 (µM), functional antagonism) is 9.1 µM; on B2 receptor (arithmetic mean, read-out: IC50 (nM) Mean) it was 2.13 nM; on B2 receptor (geometric mean, read-out: IC50 (nM) Geometric mean) it was 2.13 nM; against rat B2 receptor it was 1030 nM. Further, the Kb turned out to be 0.31 µM at Vasopressin V1a (read-out: Kb (µM), functional antagonism); 0.24 nM at B2 receptor (arithmetic mean, read-out: Kb (nM) Mean); 0.24 nM at B2 receptor (geometric mean, read-out: Kb (nM) Geometric mean); 147 nM on rat B2 receptor. The “% Inhibition @ 10 µM” value in test [2] was found to be 74%; on Neurokinin NK2 it was 21%. In addition, on human myc-B2 receptor (60 min), the “antagonist concentration that significantly reduced the c-Fos response to BK” value is recorded as “significant effect at equimolar concentration”. For the same molecule, on human myc-B2 receptor (co-treatment between 10 nM and 1 μM), the “effect on BK-induced c-Fos accumulation” value is recorded as “inhibited this response in a concentration-dependent manner”.

Usually inhibition stands for the relative decrease from the control value, in per cent. As a reminder, the IC50 is the concentration at which inhibition is half-maximal.

Source of the values: article PMC7316994, “In Vitro Pharmacological Profile of a New Small Molecule Bradykinin B2 Receptor Antagonist” (Frontiers in Pharmacology, 2020).
